Data as given in patent publication US20090030086A1, “ANTIMICROBIAL AGENTS” (priority 2005, published 2009).
≈ marks a conversion by molar mass, not a printed value. Like-named read-outs stand apart in the source and are kept apart here.

Key:
S. aureus ATCC 29213 [1] = assay: MBC assay; type: cell-based, Staphylococcus aureus; settings: for MBC: Staphylococcus aureus
Method: (§1) The staphylococci and enterococci were cultured and maintained on Mueller-Hinton Medium (agar and broth) at pH 7.2; they were incubated aerobically at 37° C. for 24 hours.
(§2) This assay, normally carried out after an MIC assay, determines the minimum concentration of a compound that is lethal to the micro-organism being tested.
(§3) These samples were then individually sub-cultured on non-selective agar medium, under the incubation conditions described above. Following incubation they were examined visually for bacterial growth.
(§4) The following experiments all used S. aureus ATCC 29213 as the test organism. MIC, MBC and DDA assays, as described above, were carried out using a range of different benzoquinones and hydroquinones. Supplemented DDA assays, in the presence of salt, lipid and blood, were also conducted.

S. aureus ATCC 29213 [2] = assay: MIC assay; type: cell-based, Staphylococcus aureus; settings: Staphylococcus aureus
Method: 1. Staphylococcus aureus—the principal staphylococcal test micro-organism used in these studies was Staphylococcus aureus ATCC 29213. This strain is the one recommended for QC/QA purposes in Minimum Inhibitory Concentration (MIC) assays by the US Clinical and Laboratory Standards Institute (formerly the NCCLS), an FDA-recognised body.
as §1
(§5) This is a standard international method for quantitatively assessing the antimicrobial activity of a compound in a liquid medium. The method used a 96-well microtitre plate, capable of holding about 200 μl of liquid per well. […] The culture media were as described above for the relevant test organisms.
(§6) The wells were inoculated with a liquid suspension of freshly grown micro-organism and incubated under the conditions described above. After incubation, the microtitre plate was examined visually (with the aid of a light box) for cloudiness in each well, which would indicate microbial growth. The MIC value was recorded as the lowest concentration of test compound required to inhibit microbial growth, i.e., the lowest concentration for which the liquid in the well remained clear.
(§7) The assays were conducted in duplicate and included both negative (culture medium only) and positive (culture medium, diluting solvent and inoculum) controls.
as §4

S. aureus ATCC 29213 [3] = assay: Supplemented disc diffusion assay; type: cell-based, Staphylococcus aureus; settings: Staphylococcus aureus, ATCC29213, 24 h
Method: as §1
(§8) A sterile paper disc was impregnated with a sample of the test compound and a minimum of 30 minutes allowed for the solvents to evaporate as far as possible. The disc was then placed on an agar plate onto which the test micro-organism had been inoculated. The plate was then incubated under the conditions described above, following which it was examined visually for signs of bacterial growth. […] The diameter of this zone of “inhibition” was measured using a ProtoCOL™ automated zone sizer (Synbiosis, Cambridge, UK).
(§9) Performance under these conditions can provide a more reliable indication of activity on topical application. For assays conducted using S. aureus strains, the supplements were defibrinated horse blood (5% v/v), lipid (Tween™ 80 at 1% v/v) and sodium chloride (100 mM). For those using Propionibacterium spp. strains, the supplements were lipid (Tween™ 80 at 1% v/v) and sodium chloride (100 mM).
as §4
(§10) For most DDA assays, 200 μg of each compound was loaded onto each disc.

S. aureus ATCC 29213 [4] = assay: Disc diffusion assay (DDA); type: cell-based, Staphylococcus aureus; settings: for zone of inhibition at 200 µg/disc: Staphylococcus aureus
Method: as §1, §8
(§11) The area of the zone of inhibition was calculated from the measured zone diameter (D) using the formula π(D/2)^2.
as §10

P. acnes NCTC 737 [5] = assay: Disc diffusion assay (DDA); type: cell-based, Propionibacterium acnes; settings: Cutibacterium acnes
Method: (§12) The Propionibacterium spp organisms were cultured and maintained on Wilkins-Chalgren Anaerobe Medium (agar and broth) at pH 6.0; cultures were incubated anaerobically at 37° C. for 72 hours.
as §8, §11, §10

P. acnes NCTC 737 [6] = assay: Supplemented disc diffusion assay; type: cell-based, Propionibacterium acnes; settings: for effect of lipid on antimicrobial activity: P. acnes NCTC 737, activity increases in the presence of lipid; for zone of inhibition at 200 µg/disc: Cutibacterium acnes, NCTC737, 72 h
Method: as §12, §8, §9
(§13) MIC, MBC and DDA assays, as described above, were carried out using a range of different benzoquinones and hydroquinones. Supplemented DDA assays, in the presence of salt and lipid, were also conducted.
as §10

P. acnes NCTC 737 [7] = assay: MIC assay; type: cell-based, Propionibacterium acnes; settings: for MIC: Cutibacterium acnes, NCTC737, 72 h, pH 6
Method: 2. Propionibacterium spp.—the principal propionibacterial strain used in these studies was Propionibacterium acnes NCTC 737.
as §12, §5, §6, §7, §13

P. acnes NCTC 737 [8] = assay: MBC assay; type: cell-based, Propionibacterium acnes; settings: for MBC: Cutibacterium acnes, NCTC737; for MIC/MBC ratio: P. acnes NCTC 737
Method: as §12, §2, §3, §13

[9] = ATCC29213, S. aureus ATCC 29213, Mueller-Hinton broth pH 7.2, aerobic, 37° C., 24 hours, read-out: MIC
[10] = S. aureus ATCC 29213, Tween 80 at 1% v/v, 200 μg per disc (thymoquinone 50 μg, 2,6-dimethoxy-p-benzoquinone 100 μg), read-out: DDA + lipid
[11] = S. aureus ATCC 29213, defibrinated horse blood 5% v/v, 200 μg per disc (thymoquinone 50 μg, 2,6-dimethoxy-p-benzoquinone 100 μg), read-out: DDA + blood
[12] = S. aureus ATCC 29213, sodium chloride 100 mM, 200 μg per disc (thymoquinone 50 μg, 2,6-dimethoxy-p-benzoquinone 100 μg), read-out: DDA + salt
[13] = ATCC29213, S. aureus ATCC 29213, unsupplemented agar, 200 μg per disc (thymoquinone 50 μg, 2,6-dimethoxy-p-benzoquinone 100 μg), read-out: DDA (diameter of zone of inhibition)
[14] = NCTC737, P. acnes NCTC 737, unsupplemented agar, 200 μg per disc (2,6-dimethoxy-p-benzoquinone 100 μg), read-out: DDA (diameter of zone of inhibition)
[15] = NCTC737, read-out: DDA (diameter of zone of inhibition)

Q: `Cc1ccc(O)c(O)c1` [4-methylcatechol] was tested. Which MIC/MBC ratio (S. aureus ATCC 29213 [1]) did it give?
A: 1

Q: And the MBC (S. aureus ATCC 29213 [1]; ATCC29213, read-out: MBC)?
A: 31.2 µg/mL (≈ 252 µM)

Q: What about the MIC (S. aureus ATCC 29213 [2]; [9]) of the same compound?
A: 31.2 µg/mL (≈ 252 µM)

Q: And the zone of inhibition at 200 µg/disc (S. aureus ATCC 29213 [3]; [10])?
A: 20 mm

Q: What about the zone of inhibition at 200 µg/disc (S. aureus ATCC 29213 [3]; [11]) of the same compound?
A: 0 mm

Q: And the zone of inhibition at 200 µg/disc (S. aureus ATCC 29213 [3]; [12])?
A: 20.9 mm

Q: What about the zone of inhibition at 200 µg/disc (S. aureus ATCC 29213 [4]; [13]) of the same compound?
A: 18.3 mm

Q: Which MIC/MBC ratio (S. aureus ATCC 29213 [1]) does the source give for `O=[N+]([O-])c1ccc(O)c(O)c1` [4-nitrocatechol] here?
A: <0.5

Q: And the MBC (S. aureus ATCC 29213 [1]; ATCC29213, read-out: MBC)?
A: > 250 µg/mL

Q: What about the MIC (S. aureus ATCC 29213 [2]; [9]) of the same compound?
A: 125 µg/mL (≈ 806 µM)

Q: And the zone of inhibition at 200 µg/disc (S. aureus ATCC 29213 [3]; [10])?
A: 16.5 mm

Q: What about the zone of inhibition at 200 µg/disc (S. aureus ATCC 29213 [3]; [11]) of the same compound?
A: 11.8 mm

Q: And the zone of inhibition at 200 µg/disc (S. aureus ATCC 29213 [3]; [12])?
A: 19 mm

Q: And the zone of inhibition at 200 µg/disc (S. aureus ATCC 29213 [4]; [13])?
A: 18.9 mm

Q: Which results are given for `CC(C)(C)c1ccc(O)c(O)c1` [4-t-butylcatechol]?
A: MIC/MBC ratio (S. aureus ATCC 29213 [1]): 1; MBC (S. aureus ATCC 29213 [1]; ATCC29213, read-out: MBC): 62.5 µg/mL (≈ 376 µM); MIC (S. aureus ATCC 29213 [2]; [9]): 62.5 µg/mL (≈ 376 µM); zone of inhibition at 200 µg/disc (S. aureus ATCC 29213 [3]; [10]): 10.9 mm; zone of inhibition at 200 µg/disc (S. aureus ATCC 29213 [3]; [11]): 9.65 mm; zone of inhibition at 200 µg/disc (S. aureus ATCC 29213 [3]; [12]): 13.1 mm; zone of inhibition at 200 µg/disc (S. aureus ATCC 29213 [4]; [13]): 12 mm

Q: How did the MIC/MBC ratio (S. aureus ATCC 29213 [1]) turn out when `CC1=C(C)C(=O)C(C)=C(C)C1=O` [duroquinone, 2,3,5,6-tetramethyl-p-benzoquinone] was run?
A: 0.5

Q: What about the MBC (S. aureus ATCC 29213 [1]; ATCC29213) of the same compound?
A: 62.5 µg/mL (≈ 381 µM)

Q: What about the MIC (S. aureus ATCC 29213 [2]; ATCC29213, 24 h, pH 7.2) of the same compound?
A: 31.2 µg/mL (≈ 190 µM)

Q: What about the zone of inhibition at 200 µg/disc (S. aureus ATCC 29213 [3]; read-out: DDA + blood) of the same compound?
A: 0 mm

Q: And the zone of inhibition at 200 µg/disc (S. aureus ATCC 29213 [3]; read-out: DDA + lipid)?
A: 16.2 mm

Q: And the zone of inhibition at 200 µg/disc (S. aureus ATCC 29213 [3]; read-out: DDA + salt)?
A: 16.5 mm

Q: What about the zone of inhibition at 200 µg/disc (S. aureus ATCC 29213 [4]; ATCC29213, read-out: DDA (diameter of zone of inhibition)) of the same compound?
A: 13.3 mm

Q: What does the source list for `O=C1C=CC(=O)C=C1` [p-benzoquinone]?
A: zone of inhibition at 200 µg/disc (S. aureus ATCC 29213 [4]; [13]): 29.3 mm; zone of inhibition at 200 µg/disc (P. acnes NCTC 737 [5]; [14]): 24.9 mm; effect of lipid on antimicrobial activity (P. acnes NCTC 737 [6]): potentiated

Q: With `Oc1ccc(O)cc1` [p-hydroquinone] as the compound, how does the MIC/MBC ratio (S. aureus ATCC 29213 [1]) read?
A: 1

Q: What about the “DDA (diameter of zone of inhibition)” value (S. aureus ATCC 29213 [4]; S. aureus ATCC 29213, unsupplemented agar, 200 μg per disc (thymoquinone 50 μg, 2,6-dimethoxy-p-benzoquinone 100 μg)) of the same compound?
A: 18.94 mm

Q: Which MIC (P. acnes NCTC 737 [7]) does the source give for `O=C1C(Cl)=C(Cl)C(=O)C(Cl)=C1Cl` [tetrachloro-p-benzoquinone] here?
A: 31.2 µg/mL (≈ 127 µM)

Q: And the MBC (P. acnes NCTC 737 [8])?
A: 62.5 µg/mL (≈ 254 µM)

Q: What about the MIC/MBC ratio (P. acnes NCTC 737 [8]) of the same compound?
A: 0.5

Q: What about the zone of inhibition at 200 µg/disc (P. acnes NCTC 737 [5]; [15]) of the same compound?
A: 11.6 mm

Q: What about the zone of inhibition at 200 µg/disc (P. acnes NCTC 737 [6]; read-out: DDA + lipid) of the same compound?
A: 12.7 mm

Q: And the zone of inhibition at 200 µg/disc (P. acnes NCTC 737 [6]; read-out: DDA + salt)?
A: 18.9 mm

Q: How did the “activity against P. acnes NCTC 737 (in words)” value (P. acnes NCTC 737 [7]) turn out when `O=C1C(F)=C(F)C(=O)C(F)=C1F` [tetrafluoro-p-benzoquinone] was run?
A: strongly so

Q: What about the MIC (P. acnes NCTC 737 [7]) of the same compound?
A: 125 µg/mL (≈ 694 µM)

Q: And the MBC (P. acnes NCTC 737 [8])?
A: 250 µg/mL (≈ 1390 µM)

Q: And the MIC/MBC ratio (P. acnes NCTC 737 [8])?
A: 0.5

Q: What about the zone of inhibition at 200 µg/disc (P. acnes NCTC 737 [5]; [15]) of the same compound?
A: 25.9 mm

Q: And the zone of inhibition at 200 µg/disc (P. acnes NCTC 737 [6]; read-out: DDA + lipid)?
A: 30.8 mm

Q: What about the zone of inhibition at 200 µg/disc (P. acnes NCTC 737 [6]; read-out: DDA + salt) of the same compound?
A: 32.4 mm

Q: What about the “effect of lipid on antimicrobial activity” value (P. acnes NCTC 737 [6]) of the same compound?
A: potentiated

Q: Which MIC/MBC ratio (S. aureus ATCC 29213 [1]) does the source give for `CC1=CC(=O)C(C(C)C)=CC1=O` [thymoquinone] here?
A: 0.5

Q: What about the zone of inhibition at 200 µg/disc (S. aureus ATCC 29213 [4]; [13]) of the same compound?
A: 15.6 mm

Q: What about the MIC/MBC ratio (P. acnes NCTC 737 [8]) of the same compound?
A: 0.5

Q: And the zone of inhibition at 200 µg/disc (P. acnes NCTC 737 [5]; [14])?
A: 27.5 mm

Q: What about the “effect of lipid on antimicrobial activity” value (P. acnes NCTC 737 [6]) of the same compound?
A: potentiated
